Values quoted from earlier work as cited in patent US7842280B2, “Flexibly labeling peptides” (Case Western Reserve University, priority 2006, dated 2010).

Conditions: Gd^3+-DOTA used in clinical MRI studies; comparison value; cited from earlier work

In the case of `O=C([O-])CN1CCN(CC(=O)[O-])CCN(CC(=O)[O-])CCN(CC(=O)[O-])CC1.[Gd+3]` [Gd^3+-DOTA], the relaxivity is given as 3.83 m mM^−1 sec^−1.
